How the values were obtained:
[1] = system: Colon Cancer patient tumor tissue; experiment: "Clinical Response Predictor" explant analysis (M-score), Colon / Colorectum cancer; assay type: cell-based, human
Text: “Clinical Response Predictor” is a patient segregation tool for matching drugs to patients and patients to the drugs in Oncology. “Clinical Response Predictor” explant model is a personalized functional assay that helps predict the response of the patient under investigation to a set of approved drugs for his/her type of cancer. This is done using fresh patient tumor tissue from solid cancers in a specially coated 96/384 well plate. The plates are coated with specific set of Extra Cellular Matix. Further, patient derived autologous ligands are added to the culture. Angiogenic factors are added to maintain tumor vasculature. In case of immunomodulator drugs, autologus immune cells are added to the culture. In the case of haematological malignancies, patient plasma is cultured in the 96/384 well format. The test is carried out in multiplicates to take into account the heterogeneous nature of cancer. “Clinical Response Predictor” results are measured by both kinetic as well as end-point assays. Cell Viability, Cell death, Cell proliferation, cell metabolism, senescence, tumor morphology are some of the parameters assessed. Each of these parameters is measured by more than one assay. For e.g.: Cell Viability is measured by WST, ATP uptake and Glucose uptake assays. Cell Proliferation and Metabolism is measured by Ki67, PCNA (proliferating nuclear cell antigen), ATP/ADP ratio and Glucose uptake. Cell death is assessed by LDH, Activated Caspase 3, Activated Caspase 8 & Nitric Oxide Synthase and TUNEL. Tumor morphology is assessed by H&E to look at the tumor cell content, size of the tumor cells, ratio of viable cells/dead cells, ratio of tumor cells/normal cells, and tumor/macrophage ratio, nuclear size and density and integrity, apoptotic bodies and mitotic figures. […]
Alternatively, when the tumor source is a xenograft, tumor from mice is excised and further subjected to explant analysis as described below. […] Results are quantified against a drug untreated control. […]

[2] = system: Breast Cancer patient tumor tissue; experiment: "Clinical Response Predictor" explant analysis (M-score), Breast cancer; assay type: cell-based, human; design: key: 0-100 composite M-score from proprietary algorithm
Text: “Clinical Response Predictor” is a patient segregation tool for matching drugs to patients and patients to the drugs in Oncology. “Clinical Response Predictor” explant model is a personalized functional assay that helps predict the response of the patient under investigation to a set of approved drugs for his/her type of cancer. This is done using fresh patient tumor tissue from solid cancers in a specially coated 96/384 well plate. The plates are coated with specific set of Extra Cellular Matix. Further, patient derived autologous ligands are added to the culture. Angiogenic factors are added to maintain tumor vasculature. In case of immunomodulator drugs, autologus immune cells are added to the culture. In the case of haematological malignancies, patient plasma is cultured in the 96/384 well format. The test is carried out in multiplicates to take into account the heterogeneous nature of cancer. “Clinical Response Predictor” results are measured by both kinetic as well as end-point assays. Cell Viability, Cell death, Cell proliferation, cell metabolism, senescence, tumor morphology are some of the parameters assessed. Each of these parameters is measured by more than one assay. For e.g.: Cell Viability is measured by WST, ATP uptake and Glucose uptake assays. Cell Proliferation and Metabolism is measured by Ki67, PCNA (proliferating nuclear cell antigen), ATP/ADP ratio and Glucose uptake. Cell death is assessed by LDH, Activated Caspase 3, Activated Caspase 8 & Nitric Oxide Synthase and TUNEL. Tumor morphology is assessed by H&E to look at the tumor cell content, size of the tumor cells, ratio of viable cells/dead cells, ratio of tumor cells/normal cells, and tumor/macrophage ratio, nuclear size and density and integrity, apoptotic bodies and mitotic figures. Results from each of the assays are expressed in numeric form and is converted using a proprietary algorithm into a single 0-100 metric called “M-score”.
Alternatively, when the tumor source is a xenograft, tumor from mice is excised and further subjected to explant analysis as described below. In another embodiment, the tumor is obtained and is implanted into the mice, thereafter it is allowed to grow, then excised and then subjected to the instant “Clinical Response Predictor” analysis. Post obtaining the, tissue sample, it is divided for obtaining various inputs from a) explant assay, b) Histology based assays like IHC (immunohistochemistry)/H&E, and c) efficacy analysis from primary tumor derived xenografts. • A) Tissue sample given for explant analysis is sliced using Leica Vibratome to generate sections of about 100-3000 μm thickness. These sections are cultured in plates coated with the cancer type specific ECM composition in quadruplicate with media containing autologous sera and also various drugs optionally, for a period of about 48-96 hours. Media with drug and enriched with serum/plasma/PBMCs/serum derived ligands is changed every 24 hours. Post this period MTT/WST analysis is done to assess percent cell viability (end point assay). The supernatant from the media culture is removed every 24 hrs and assessed for proliferation (using ATP and glucose utilization experiments) and cell death (by assessment of lactate dehydrogenase assays and caspase-3 and caspase 8 measurements) to give kinetic response trends. Results are quantified against a drug untreated control. […] The tissue sections both treated and untreated are also given for histological evaluation at the end of the culture period. • B) The tissues given for histological evaluation are assessed for apoptosis by TUNEL and activated caspase 3 assay. Also cell proliferation is assayed for standard proliferation markers like Ki67.

[3] = system: Pancreatic Cancer patient tumor tissue; experiment: "Clinical Response Predictor" explant analysis (M-score), Pancreatic cancer; assay type: cell-based, human
Text: (§1) “Clinical Response Predictor” is a patient segregation tool for matching drugs to patients and patients to the drugs in Oncology. “Clinical Response Predictor” explant model is a personalized functional assay that helps predict the response of the patient under investigation to a set of approved drugs for his/her type of cancer. This is done using fresh patient tumor tissue from solid cancers in a specially coated 96/384 well plate. The plates are coated with specific set of Extra Cellular Matix. Further, patient derived autologous ligands are added to the culture. Angiogenic factors are added to maintain tumor vasculature. In case of immunomodulator drugs, autologus immune cells are added to the culture. […] “Clinical Response Predictor” results are measured by both kinetic as well as end-point assays. Cell Viability, Cell death, Cell proliferation, cell metabolism, senescence, tumor morphology are some of the parameters assessed. Each of these parameters is measured by more than one assay. For e.g.: Cell Viability is measured by WST, ATP uptake and Glucose uptake assays. Cell Proliferation and Metabolism is measured by Ki67, PCNA (proliferating nuclear cell antigen), ATP/ADP ratio and Glucose uptake. Cell death is assessed by LDH, Activated Caspase 3, Activated Caspase 8 & Nitric Oxide Synthase and TUNEL. […]

[4] = system: Liver Cancer patient tumor tissue; experiment: "Clinical Response Predictor" explant analysis (M-score), Liver cancer; assay type: cell-based, human; conditions: for M-Score: liver
Text: “Clinical Response Predictor” is a patient segregation tool for matching drugs to patients and patients to the drugs in Oncology. “Clinical Response Predictor” explant model is a personalized functional assay that helps predict the response of the patient under investigation to a set of approved drugs for his/her type of cancer. This is done using fresh patient tumor tissue from solid cancers in a specially coated 96/384 well plate. The plates are coated with specific set of Extra Cellular Matix. Further, patient derived autologous ligands are added to the culture. Angiogenic factors are added to maintain tumor vasculature. In case of immunomodulator drugs, autologus immune cells are added to the culture. In the case of haematological malignancies, patient plasma is cultured in the 96/384 well format. The test is carried out in multiplicates to take into account the heterogeneous nature of cancer. “Clinical Response Predictor” results are measured by both kinetic as well as end-point assays. Cell Viability, Cell death, Cell proliferation, cell metabolism, senescence, tumor morphology are some of the parameters assessed. Each of these parameters is measured by more than one assay. For e.g.: Cell Viability is measured by WST, ATP uptake and Glucose uptake assays. Cell Proliferation and Metabolism is measured by Ki67, PCNA (proliferating nuclear cell antigen), ATP/ADP ratio and Glucose uptake. Cell death is assessed by LDH, Activated Caspase 3, Activated Caspase 8 & Nitric Oxide Synthase and TUNEL. Tumor morphology is assessed by H&E to look at the tumor cell content, size of the tumor cells, ratio of viable cells/dead cells, ratio of tumor cells/normal cells, and tumor/macrophage ratio, nuclear size and density and integrity, apoptotic bodies and mitotic figures. Results from each of the assays are expressed in numeric form and is converted using a proprietary algorithm into a single 0-100 metric called “M-score”. […]
Alternatively, when the tumor source is a xenograft, tumor from mice is excised and further subjected to explant analysis as described below. […] The supernatant from the media culture is removed every 24 hrs and assessed for proliferation (using ATP and glucose utilization experiments) and cell death (by assessment of lactate dehydrogenase assays and caspase-3 and caspase 8 measurements) to give kinetic response trends. Results are quantified against a drug untreated control. […] The tissue sections both treated and untreated are also given for histological evaluation at the end of the culture period. • B) The tissues given for histological evaluation are assessed for apoptosis by TUNEL and activated caspase 3 assay. […]

[5] = system: Glioblastoma, Ca-Ovary, Ca-Breast, Ca-Oesophagus, Ca-Pancreas, Ca-Stomach; experiment: Clinical outcome of patients (PETCT or CT), other solid cancers; assay type: in vivo, human; conditions: evaluated at the end of 6-8 months by PETCT or CT
Protocol: The figure details that the tumor tissue from the patient is analyzed using explant read out, primary Human tumor xenograft readout and then subjected to a variety of genomic and proteomic profiling accompanied by histological analysis and final correlation with patient clinical data for the chemotherapy regimen. All these input parameters together generate the “Clinical Response Predictor”. The integrated preclinical prediction model is designed based on functional “Clinical Response Predictor” screening platform and M Score prompted by it. Tumor tissues are collected from clinics prior to initiation of treatment. Clinical outcome (PERCIST/RECIST) data are collected before and after completion of 3 cycles of chemotherapy (top of the FIG. 1). Concomitantly, after resection/biopsy tumors are treated with same Standards of Care [SOC] or targeted drugs as that received by patients using an “Clinical Response Predictor” driven explants platform. This leads to the extensive functional and molecular characterization (middle of the FIG. 1). […] The combined data from this platform is integrated for determining the M-score and thereafter correlated with PERCIST/RECIST obtained from patient after 3rd to 6th cycle of therapy.
The “Clinical Response Predictor” outcome (M-score) is then compared with clinical outcome.

[6] = system: Ovary Cancer patient tumor tissue; experiment: "Clinical Response Predictor" explant analysis (M-score), Ovary cancer; assay type: cell-based, human
Text: as §1

[7] = system: Stomach Cancer patient tumor tissue; experiment: "Clinical Response Predictor" explant analysis (M-score), Stomach cancer; assay type: cell-based, human
Text: as §1

[8] = system: Head and Neck Cancer patient tumor tissue; experiment: "Clinical Response Predictor" explant analysis (M-score / Sensitivity Index), Head and Neck cancer; assay type: cell-based, human; conditions: Right pyriform sinus
Text: as §1

[9] = system: Glioblastoma patient tumor tissue; experiment: "Clinical Response Predictor" explant analysis (M-score), Glioblastoma; assay type: cell-based, human; conditions: Glioblastoma patient tumor sample, Table 3
Text: as §1

[10] = Example 13.11: patient, Breast Cancer, Regional Lymph node (R) Breast, T3N1M0, metastasis and recc
[11] = Example 13.14: patient, T4N0M0, primary

Avastin
M-Score ([1]; Example 13.15: patient, Colorectum Cancer, perineal mass, T3N0M0, recurrent): 20
M-Score ([2]; Example 13.18: patient, Breast Cancer with mets, Regional lymph node (Rt Br), T3N1M1, recurrent): 18
M-Score ([2]; Example 13.19: patient, Breast Cancer with SCLN mets, supraclaviculus lymph node, TXNXM2, metastatic): 14

C#Cc1cccc(Nc2ncnc3cc(OCCOC)c(OCCOC)cc23)c1 [Erlotinib]
M-Score ([3]; Example 13.7: patient, tumor site liver, metastasis): 21
M-Score ([3]; Example 13.8: patient, pancreas, T2N0M0, primary): 14

Nc1ccn([C@@H]2O[C@H](CO)[C@@H](O)C2(F)F)c(=O)n1 [Gemcitabine]
M-Score [2, 10]: 21

CNC(=O)c1cc(Oc2ccc(NC(=O)Nc3ccc(Cl)c(C(F)(F)F)c3)cc2)ccn1 [Sorafenib]
"Clinical Response Predictor" analysis suggestion ([4]; Example 13.13: patient, T3NxM1, metastasis): not an optimal therapeutic option
M-Score ([4]; Example 13.13: patient, T3N×M1, metastasis): 16
"Clinical Response Predictor" analysis suggestion [4, 11]: an optimal therapeutic option
M-Score [4, 11]: 46

CC(C)(C#N)c1cc(Cn2cncn2)cc(C(C)(C)C#N)c1 [Anastrozole]
M-Score [2, 10]: 20

CC(=O)O[C@H]1C(=O)[C@@]2(C)[C@H]([C@H](OC(=O)c3ccccc3)[C@]3(O)C[C@H](OC(=O)[C@H](O)[C@@H](NC(=O)c4ccccc4)c4ccccc4)C(C)=C1C3(C)C)[C@]1(OC(C)=O)CO[C@@H]1C[C@@H]2O [Paclitaxel]
M-Score [2, 10]: 11

CCC1=C[C@@H]2CN(C1)Cc1c([nH]c3ccccc13)[C@@](C(=O)OC)(c1cc3c(cc1OC)N(C)[C@H]1[C@@](O)(C(=O)OC)[C@H](OC(C)=O)[C@]4(CC)C=CCN5CC[C@]31[C@@H]54)C2 [Vinorelbine]
M-Score [2, 10]: 19
Clinical readout RECIST ([5]; Ca-Breast patients): 2

CCCCCOC(=O)Nc1nc(=O)n([C@@H]2O[C@H](C)[C@@H](O)[C@H]2O)cc1F [Capecitabine]
M-Score [2, 10]: 26

CC(=O)O[C@@]12CO[C@@H]1C[C@H](O)[C@@]1(C)C(=O)[C@H](O)C3=C(C)[C@@H](OC(=O)[C@H](O)[C@@H](NC(=O)OC(C)(C)C)c4ccccc4)C[C@@](O)([C@@H](OC(=O)c4ccccc4)[C@H]21)C3(C)C [Docetaxel]
M-Score ([6]; Example 13.10: patient, primary): 19
M-Score ([6]; Example 13.9: patient, metastasis): 26
M-Score [2, 10]: 26

COc1cccc2c1C(=O)c1c(O)c3c(c(O)c1C2=O)C[C@@](O)(C(=O)CO)C[C@@H]3O[C@H]1C[C@H](N)[C@H](O)[C@H](C)O1 [Doxorubicin]
M-Score [2, 10]: 17

CCN(CC)CCNC(=O)c1c(C)[nH]c(/C=C2\C(=O)Nc3ccc(F)cc32)c1C [Sunitinib]
M-Score ([7]; Example 13.5: patient, pylorus of stomach, metastatic lymph node recc): 25
M-Score ([7]; Example 13.6: patient, stomach, recc): 09

N.N.[Cl][Pt][Cl] [Cisplatin]
M-Score ([8]; Example 13.1: patient, T3N0M0, primary): 64
M-Score ([8]; Example 13.2: patient, T3/4N2cM0, metastatic lymph node): 39

Panitumumab
M-Score ([1]; Example 13.3: patient, Colon Cancer, rectosigmoid colon, Stage IV, metastasis): 19
M-Score ([1]; Example 13.4: patient, Colon Cancer, perineal mass (Ca-Rectum), T3N0M0, Recc): 27

Cn1nnc2c(C(N)=O)ncn2c1=O [Temozolomide]
Sensitivity Index [9]: 49
Clinical readout RECIST ([5]; Glioblastoma patient): 2

— patent US20200064333A1, “ECM COMPOSITION, TUMOR MICROENVIRONMENT PLATFORM AND METHODS THEREOF” (MITRA RXDX INDIA PRIVATE LIMITED, priority 2011, published 2020)
